Each structure is given as a SMILES string. Entries after “also recorded” stand apart in the source; their conditions may differ.

These results are taken from patent US20230391741A1, “AGAROFURAN COMPOUND, PREPARATION METHOD THEREFOR, AND APPLICATION THEREOF” (BEIJING CHY PHARMACEUTICAL TECHNOLOGY CO, LTD., priority 2021, published 2023).

The test system of data set [1] is male ICR mice. Nature of the data set: Elevated plus maze (EPM) test, intraperitoneal injection. The note with it: for Open-arm residence times and entries compared with BAF: Tables 3 and 4, statistical differences at a low dose; for Efficacy compared with BAF: at low doses; for Closed arm number of entries / Closed arm residence time / Open arm number of entries / Open arm residence time / Open arm/closed arm frequency ratio / Open arm/closed arm time ratio: mice, intraperitoneal, 5 min before entering the maze. It is filed as in vivo, mouse. An excerpt: The active ingredient used in the following pharmacological experiment, the compound shown in Formula (I) of the present application, is the final product in Example 1 of the present application, namely (1R,6S,9R)6,10,10-trimethyl-2-(4,4,4-trifluorobutyl)-11-oxatricyclo [7.2.1.0^1,6]dodec-2-ene (hereinafter referred to as Compound 2). Compound 2 and an excipient PVP (povidone K30) were mixed in an ethanol solution in a mass ratio of 1:15, spin-dried, and prepared into a preparation form of Compound 2 (the following Compound 2 refers to the preparation form of Compound 2). The preparation form of which the active ingredient was 4-butyl-α-agarofuran (BAF for short) was used as a positive drug, a preparation method for this preparation was the same as that of the preparation of Compound 2, and the following BAF refers to this preparation of BAF. PVP was a blank control. In addition, the administration dose was calculated according to a crude drug.
This model is one of the most commonly used animal models in the research of antianxiety drugs. The elevated plus maze is composed of an open arm (30×5×0.5 cm) and an closed arm (30×8×15 cm) that are crossed in a positive cross shape, and the instrument is suspended 50 cm above the ground. Due to the narrowness, suspension, and brightness of the open arm, there may be internal “fear” or conflict in the open arm, and on the contrary, it more complies with the nature of rodents in the closed arm. 5 min after administration, a mouse is placed in the center of the maze, and its head faces to the open arm. Open-arm and closed-arm entries and residence times in both arms during the experimental period (usually 5 min) are recorded respectively. The percentages of the open arm entries and the open arm residence times respectively accounting for the total entries (sum of the open arm and closed arm entries) and the total time (sum of the open arm and closed arm residence times) are calculated, as an indicator for evaluating the anxiety. Generally speaking, a drug is considered to have antianxiety effects in the case that the open arm cumulative residence time is prolonged without reducing the open arm and closed arm entries.
The experiment used male Institute of Cancer Research (ICR) mice (purchased from Beijing Weitong Lihua Experimental Animal Technology Co., Ltd.), the weight was 18-20 g, the mice were randomly divided into 7 groups according to the weight, and there were 13 mice in each group. Grip adaptation training was conducted on the mice before the experiment. Before the experiment, the mice were fasted for 12 hours. It was administered by an intraperitoneal injection mode. 4-butyl-α-agarofuran (BAF for short) was used as a positive drug, and PVP was a blank control. The specific grouping and disposal modes are as follows:
During detection, after intraperitoneal injection of BAF/Compound 2, each mouse was immediately placed in an open animal box and allowed to move freely for 5 min, then the mouse was placed on a central platform of the elevated plus maze, its head faced to a fixed open arm. The detection was started, timed for 5 min, and recorded with a supermaze software by using a camera head. After all the experiments were completed, the residence times (s) of the mice in the open arm and the closed arm, the open arm and closed arm entries, and the time ratios and frequency ratios of the open arm and closed arm entries were recorded with the supermaze software. 1 was added to the number of entry arms with a latency of 0.

Data set [2] is described as follows: Plasma pharmacokinetics after intraperitoneal injection in mouse (UPLC-MS/MS). It is filed as in vivo. The conditions noted are these: for AUC(0-t) / half-life / Cmax: male, ICR; for AUC(0-t) / half-life: plasma; for AUC(0-t): 10 mg/kg, according to the above method, read-out: AUC(0-t); for AUC(0-t) / half-life / Pharmacokinetic properties compared with BAF: mouse; for AUC(0-t) / Pharmacokinetic properties compared with BAF: IP; for half-life / Cmax: IP 10 mg/kg; for Cmax: mouse plasma, prototype drug. As to the method:
Positive control drug 4-butyl-α-agarofuran preparation (BAF) and Compound 2 preparation were administered intraperitoneally at a dose of 10 mg/kg/10 ml (calculated according to the crude drug), and a suspension was prepared by ultrasonic grinding with double distilled water. Male ICR mice, with a weight of 21-24 g, were purchased from SPF (Beijing) Biotechnology Co., Ltd.
12 mice were randomly divided into 4 groups, there were 3 parallel cross blood sampling points in each group (5 points in groups 1 and 3, and 6 points in groups 2 and 4), it was administered according to the weight, and blood was collected from the orbital venous plexus at 5 min, 10 min, […], 30 min, 1 h, 2 h, 4 h, 6 h, 8 h, 12 h, and 24 h after administration. The bloods at each time point were collected into Eppendorf (EP) tubes anticoagulated with heparin, and placed on ice and centrifuged at 8000 r/min×5 min, to separate plasma for later use.
20 μl of mouse blank plasma was taken, 55 μl of acetonitrile containing an internal standard solution (200 ng/mL, BAF crude drug and Compound 2 crude drug are mutual internal standards, namely BAF was used as the internal standard of Compound 2, and Compound 2 was used as the internal standard of BAF, similarly hereinafter) is added, 5 μl of a methanol working solution of the compound BAF or Compound 2 with different concentrations was respectively added and mixed uniformly, so that its final plasma concentrations were 0.2, 0.5, 2, 5, 10, 25, 50, 100, 200, 500, 750, and 1000 ng/ml respectively, centrifugation was conducted twice at a high speed of 13000 r/min×5 min, and 5 μl of a supernatant was taken for UPLC-MS/MS analysis.
10 μL of plasma was taken, 30 μL of acetonitrile containing internal standard solution (100 ng/mL) was added to precipitate proteins, after the material was centrifuged twice at a high speed of 13000 r/min×5 min, 5 μl of a supernatant was taken for UPLC-MS/MS analysis.
Chromatographic column: Symmetry C8 (2.1 mm×50 mm, 3.5 μm), column temperature: 25° C., mobile phase: acetonitrile (0.1% formic acid): water (0.1% formic acid)=70:30 gradient elution, flow rate: 0.2 mL/min, Parallel Reaction Monitoring (PRM) detection, BAF: m/z 263.2→245.2; and Compound 2: m/z 317.2→299.2.

The term AUC(0-t) denotes exposure summed from dosing to a finite time, without extrapolation to infinity. Broadly, the half-life is the time needed for the level to fall by half in the phase considered. Read a high half-life as slow loss. As a reminder, the Cmax is the highest concentration seen after dosing. Take `CC1(C)O[C@]23C[C@H]1CC[C@]2(C)CCC=C3CCCCC(F)(F)F` [Compound 6, (1R,6S,9R)6,10,10-trimethyl-2-(5,5,5-trifluoropentyl)-11-oxatricyclo [7.2.1.0^1,6]dodec-2-ene]: in data set [1], the “Open-arm residence times and entries compared with BAF” value was “prolonged”; the “Efficacy compared with BAF” value is “better efficacy”. Moreover, in data set [1] (2.4 mg/kg), the “Closed arm number of entries” value was 11.00 ± 0.83, the “Closed arm residence time” value is 129.22 ± 9.33 s, the “Open arm number of entries” value was found to be 9.11 ± 0.54 and the “Open arm residence time” value was 126.19 ± 8.01 s. In data set [1] (2.4 mg/kg), the “Open arm/closed arm frequency ratio” value worked out at 0.86 ± 0.07 and the “Open arm/closed arm time ratio” value is 0.98 ± 0.15. For the same compound, in data set [1] (4.8 mg/kg), the “Closed arm number of entries” value was 10.00 ± 0.60, the “Closed arm residence time” value turned out to be 154.33 ± 7.85 s, the “Open arm number of entries” value stood at 8.88 ± 0.55 and the “Open arm residence time” value worked out at 116.53 ± 6.42 s. In data set [1] (4.8 mg/kg), the “Open arm/closed arm frequency ratio” value stood at 0.90 ± 0.05 and the “Open arm/closed arm time ratio” value is 0.78 ± 0.07. Also, in data set [1] (9.6 mg/kg), the “Closed arm number of entries” value came to 8.56 ± 1.19, the “Closed arm residence time” value was 140.04 ± 15.48 s, the “Open arm number of entries” value was 8.78 ± 1.53 and the “Open arm residence time” value came to 111.29 ± 11.05 s. Further, in data set [1] (9.6 mg/kg), the “Open arm/closed arm frequency ratio” value was found to be 1.06 ± 0.13 and the “Open arm/closed arm time ratio” value stood at 0.91 ± 0.17. Moreover, in data set [2], the AUC(0-t) stood at 142 ng·h/mL, the half-life is 1.39 h, the Cmax was 342 ng/mL and the “Pharmacokinetic properties compared with BAF” value is “superior to BAF; also recorded: better pharmacokinetic properties”.

Regarding `[2H]C1[C@H]2CC[C@]3(C)CC([2H])([2H])C=C(CCCC(F)(F)F)[C@@]13OC2(C)C` (stereo partly drawn) [Compound 8, (1R,6R,9R)6,10,10-trimethyl-2-(4,4,4-trifluorobutyl)-4,4,10-trideuterium-11-oxatricyclo [7.2.1.0^1,6]dodec-2-ene], in data set [1], the “Open-arm residence times and entries compared with BAF” value is listed as “prolonged”; the “Efficacy compared with BAF” value is “better efficacy”. Moreover, in data set [1] (2.4 mg/kg), the “Closed arm number of entries” value stood at 10.86 ± 1.30, the “Closed arm residence time” value is 126.36 ± 11.90 s, the “Open arm number of entries” value was determined as 9.43 ± 0.78 and the “Open arm residence time” value came out at 134.90 ± 9.73 s. In data set [1] (2.4 mg/kg), the “Open arm/closed arm frequency ratio” value is given as 0.93 ± 0.10 and the “Open arm/closed arm time ratio” value is on record as 1.20 ± 0.26. For the same compound, in data set [1] (4.8 mg/kg), the “Closed arm number of entries” value was 10.00 ± 0.63, the “Closed arm residence time” value amounted to 147.85 ± 10.01 s, the “Open arm number of entries” value is 9.10 ± 0.87 and the “Open arm residence time” value is 117.97 ± 8.25 s. In data set [1] (4.8 mg/kg), the “Open arm/closed arm frequency ratio” value is given as 0.93 ± 0.10 and the “Open arm/closed arm time ratio” value stood at 0.88 ± 0.14. Besides, in data set [1] (9.6 mg/kg), the “Closed arm number of entries” value is 10.00 ± 1.20, the “Closed arm residence time” value came to 139.21 ± 14.30 s, the “Open arm number of entries” value is given as 8.70 ± 0.94 and the “Open arm residence time” value was 112.96 ± 9.69 s. Further, in data set [1] (9.6 mg/kg), the “Open arm/closed arm frequency ratio” value is recorded as 0.90 ± 0.07 and the “Open arm/closed arm time ratio” value was 0.93 ± 0.16. Besides, in data set [2], the AUC(0-t) was found to be 148 ng·h/mL, the half-life was 1.41 h, the highest level (Cmax) was 350 ng/mL and the “Pharmacokinetic properties compared with BAF” value is listed as “superior to BAF; also recorded: better pharmacokinetic properties”.
